Drawing on US20230286970A1, “NOVEL OXADIAZOLE-BASED SELECTIVE HDAC6 INHIBITORS” (ITALFARMACO S.P.A., priority 2020, published 2023), this text covers IC50 for 27 molecules.

For one experiment, the target named is recombinant human HDAC1 (Homo sapiens (Human), UniProt Q13547). Nature of the experiment: Enzymatic screening, HDAC1 inhibition (fluorogenic FdL_G substrate). The class given is biochemical. The gist of the method:
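Recombinant human HDAC1 inhibition was measured fluorometrically using the FLUOR DE LYS-Green (FdL_G) substrate. Compounds at 8 doses (1% DMSO final) in Tris-HCl pH 8 buffer with NaCl, Tween-20 and glycerol were preincubated in triplicate with enzyme and 1 mg/mL BSA, then given substrate. Developer I plus 2 μM TSA was added, and fluorescence read after 25 minutes in the dark.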

The target in a further experiment is recombinant human HDAC6 (Homo sapiens (Human), UniProt Q9UBN7). Nature of the experiment: Enzymatic screening, HDAC6 inhibition (fluorogenic FdL_G substrate). The experiment is classed as biochemical. A digest of the protocol: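 Enzyme was preincubated with compound (8 doses, triplicate, 1% DMSO) in 25 mM Tris-HCl pH 8, 130 mM NaCl, 0.05% Tween-20, 10% glycerol, with BSA. A FLUOR DE LYS-Green substrate was then added, and fluorescence was read after developer plus 2 μM TSA.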
Sequence of recombinant human HDAC6 (Q9UBN7 whole entry): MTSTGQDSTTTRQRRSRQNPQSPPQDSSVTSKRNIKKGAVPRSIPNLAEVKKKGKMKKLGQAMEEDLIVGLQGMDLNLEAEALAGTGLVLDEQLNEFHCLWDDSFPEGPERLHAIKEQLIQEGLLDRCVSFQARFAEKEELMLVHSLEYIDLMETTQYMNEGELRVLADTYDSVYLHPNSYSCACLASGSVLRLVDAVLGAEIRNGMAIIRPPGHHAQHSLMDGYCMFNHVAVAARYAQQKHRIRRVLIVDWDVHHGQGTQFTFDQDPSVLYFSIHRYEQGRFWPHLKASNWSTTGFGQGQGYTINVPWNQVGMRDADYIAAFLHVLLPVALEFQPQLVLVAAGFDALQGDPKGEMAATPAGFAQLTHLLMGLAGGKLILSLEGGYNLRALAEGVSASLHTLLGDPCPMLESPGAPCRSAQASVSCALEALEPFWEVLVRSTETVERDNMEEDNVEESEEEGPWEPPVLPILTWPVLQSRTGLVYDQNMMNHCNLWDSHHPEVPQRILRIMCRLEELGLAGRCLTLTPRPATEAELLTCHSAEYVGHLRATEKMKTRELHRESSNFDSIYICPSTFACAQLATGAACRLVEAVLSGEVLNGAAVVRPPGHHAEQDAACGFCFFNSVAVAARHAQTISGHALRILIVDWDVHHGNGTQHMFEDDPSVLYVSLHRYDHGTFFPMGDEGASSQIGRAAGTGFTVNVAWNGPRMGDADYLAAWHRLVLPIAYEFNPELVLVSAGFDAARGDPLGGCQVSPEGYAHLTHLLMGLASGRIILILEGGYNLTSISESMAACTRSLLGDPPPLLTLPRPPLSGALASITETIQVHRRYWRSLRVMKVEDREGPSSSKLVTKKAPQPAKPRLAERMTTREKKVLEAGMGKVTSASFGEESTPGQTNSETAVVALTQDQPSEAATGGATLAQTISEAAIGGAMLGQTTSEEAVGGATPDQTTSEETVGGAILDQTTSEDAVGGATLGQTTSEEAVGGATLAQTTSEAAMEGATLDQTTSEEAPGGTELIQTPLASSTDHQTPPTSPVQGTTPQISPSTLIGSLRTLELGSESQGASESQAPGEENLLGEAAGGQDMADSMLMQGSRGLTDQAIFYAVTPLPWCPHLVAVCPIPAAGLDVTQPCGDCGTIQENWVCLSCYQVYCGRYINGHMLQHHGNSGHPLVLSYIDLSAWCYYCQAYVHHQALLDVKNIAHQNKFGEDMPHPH

Sequence of recombinant human HDAC1 (Q13547 whole entry): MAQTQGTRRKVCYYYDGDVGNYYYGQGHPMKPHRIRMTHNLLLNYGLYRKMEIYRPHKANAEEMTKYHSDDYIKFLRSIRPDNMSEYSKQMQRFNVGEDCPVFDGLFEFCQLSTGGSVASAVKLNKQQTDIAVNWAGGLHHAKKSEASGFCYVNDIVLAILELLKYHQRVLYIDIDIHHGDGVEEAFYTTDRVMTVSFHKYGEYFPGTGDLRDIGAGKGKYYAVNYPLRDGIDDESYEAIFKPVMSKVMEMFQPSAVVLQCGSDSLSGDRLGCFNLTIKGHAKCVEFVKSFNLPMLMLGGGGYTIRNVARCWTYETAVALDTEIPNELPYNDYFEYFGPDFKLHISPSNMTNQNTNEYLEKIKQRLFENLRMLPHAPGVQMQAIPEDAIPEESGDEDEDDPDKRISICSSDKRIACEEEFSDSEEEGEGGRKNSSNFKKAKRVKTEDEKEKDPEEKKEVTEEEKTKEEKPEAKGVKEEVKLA

The IC50 is the concentration needed to halve the response being measured. As to `O=C1Nc2ccc(-c3cn(Cc4ccc(-c5nnc(C(F)F)o5)cc4)nn3)cc2C12CCNC2` (stereo not drawn) [compound 49, 5-(1-(4-(5-(difluoromethyl)-1,3,4-oxadiazol-2-yl)benzyl)-1H-1,2,3-triazol-4-yl)spiro[indoline-3,3′-pyrrolidin]-2-one], the figures for the IC50 at recombinant human HDAC1 and on recombinant human HDAC6 were > 200000 nM and 21 nM, respectively.
On the same counts, the results for `NCc1ccc(-c2nnn(Cc3ccc(-c4nnc(C(F)F)o4)cc3)n2)cc1` [compound 43, (4-(2-(4-(5-(difluoromethyl)-1,3,4-oxadiazol-2-yl)benzyl)-2H-tetrazol-5-yl)phenyl)methanamine] are 74900 nM and 20 nM.
On the same counts, the results for `FC(F)c1nnc(-c2ccc(Cn3cc(-c4ccc5cn[nH]c5c4)nn3)cc2)o1` [compound 222, 2-(4-((4-(1H-indazol-6-yl)-1H-1,2,3-triazol-1-yl)methyl)phenyl)-5-(difluoromethyl)-1,3,4-oxadiazole] are > 200000 nM and 160 nM.
Taken in the same sequence, the figures for `Nc1nc2cc(-c3cn(Cc4ccc(-c5nnc(C(F)F)o5)cn4)cn3)ccc2o1` [compound 308, 5-(1-((5-(5-(difluoromethyl)-1,3,4-oxadiazol-2-yl)pyridin-2-yl)methyl)-1H-imidazol-4-yl)benzo[d]oxazol-2-amine] were > 1e+06 nM and 15 nM.
For `CNc1ncc2cc(-c3cn(Cc4cc(F)c(-c5nnc(C(F)F)o5)cc4F)nn3)ccc2n1` [compound 391, 6-[1-({4-[5-(difluoromethyl)-1,3,4-oxadiazol-2-yl]-2,5-difluorophenyl}methyl)-1H-1,2,3-triazol-4-yl]-N-methylquinazolin-2-amine], the IC50 at recombinant human HDAC1 was found to be 1e+06 nM; on recombinant human HDAC6, 217 nM.
`CN(Cc1ccncc1)Cc1ccc(-c2nnn(Cc3c(F)cc(-c4nnc(C(F)F)o4)cc3F)n2)cc1` [compound 201, N-(4-(2-(4-(5-(difluoromethyl)-1,3,4-oxadiazol-2-yl)-2,6-difluorobenzyl)-2H-tetrazol-5-yl)benzyl)-N-methyl-1-(pyridin-4-yl)methanamine]: the IC50 on recombinant human HDAC1 was > 200000 nM; on recombinant human HDAC6, 115 nM.
Taken in the same sequence, the figures for `CN1CCN(c2cccc(-c3nnn(Cc4ccc(-c5nnc(C(F)F)o5)cc4)n3)c2)CC1` [compound 58, 2-(difluoromethyl)-5-(4-((5-(3-(4-methylpiperazin-1-yl)phenyl)-2H-tetrazol-2-yl)methyl)phenyl)-1,3,4-oxadiazole] were > 200000 nM and 25 nM.
On the same counts, the results for `Nc1ccc(-c2noc(Cc3ccc(-c4nnc(C(F)F)o4)cc3F)n2)cc1` [compd. 419, 4-(5-(4-(5-(difluoromethyl)-1,3,4-oxadiazol-2-yl)-2-fluorobenzyl)-1,2,4-oxadiazol-3-yl)aniline] are > 1e+06 nM and 64 nM.
On the same counts, the results for `Nc1ccc(-c2noc(C(F)(F)c3ccc(-c4nnc(C(F)F)o4)cc3)n2)cn1` [Compd. 243, 5-(5-((4-(5-(difluoromethyl)-1,3,4-oxadiazol-2-yl)phenyl)difluoromethyl)-1,2,4-oxadiazol-3-yl)pyridin-2-amine] are > 200000 nM and 234 nM.
As for `O=C1Nc2ccc(-c3nnn(Cc4ccc(-c5nnc(C(F)F)o5)cn4)n3)cc2NC12CCCC2` [compound 27, 7′-(2-((5-(5-(difluoromethyl)-1,3,4-oxadiazol-2-yl)pyridin-2-yl)methyl)-2H-tetrazol-5-yl)-1′,4′-dihydro-3′H-spiro[cyclopentane-1,2′-quinoxalin]-3′-one], the IC50 on recombinant human HDAC1 is > 200000 nM; at recombinant human HDAC6, 9 nM.
As for `CNc1ccc2cc(-c3cn(Cc4ccc(-c5nnc(C(F)F)o5)cc4)nn3)ccc2n1` [compound 142, 6-(1-(4-(5-(difluoromethyl)-1,3,4-oxadiazol-2-yl)benzyl)-1H-1,2,3-triazol-4-yl)-N-methylquinolin-2-amine], the IC50 was > 200000 nM at recombinant human HDAC1 and 59 nM at recombinant human HDAC6.
Regarding `Nc1ccc(-c2cn(C(CCNC(=O)C(F)F)c3ccc(-c4nnc(C(F)F)o4)cn3)nn2)cn1` (stereo not drawn) [compd. 295, N-(3-(4-(6-aminopyridin-3-yl)-1H-1,2,3-triazol-1-yl)-3-(5-(5-(difluoromethyl)-1,3,4-oxadiazol-2-yl)pyridin-2-yl)propyl)-2,2-difluoroacetamide], the IC50 on recombinant human HDAC1 was > 200000 nM; at recombinant human HDAC6, 32 nM.
Regarding `FCc1nnc(-c2ccc(Cc3nc(-c4ccc(NC5=NCCN5)cc4)no3)cc2)o1` [compound 380], the IC50 at recombinant human HDAC1 was > 1e+06 nM; on recombinant human HDAC6 it was 19 nM.
On the same counts, the results for `CC(c1ccc(-c2nnc(C(F)F)o2)cn1)n1cc(-c2cccc(NC(=O)N3CCOCC3)c2)nn1` (stereo not drawn) [compound 66, N-(3-(1-(1-(5-(5-(difluoromethyl)-1,3,4-oxadiazol-2-yl)pyridin-2-yl)ethyl)-1H-1,2,3-triazol-4-yl)phenyl)morpholine-4-carboxamide] are > 200000 nM and 28 nM.
Taken in the same sequence, the figures for `Nc1nc2cc(-c3cn(Cc4ccc(-c5nnc(C(F)F)o5)cc4)nn3)ccc2s1` [compound 132, 5-(1-(4-(5-(difluoromethyl)-1,3,4-oxadiazol-2-yl)benzyl)-1H-1,2,3-triazol-4-yl)benzo[d]thiazol-2-amine] were > 200000 nM and 51 nM.
On the same counts, the results for `CCNc1cccc(-c2cn(Cc3ccc(-c4nnc(C(F)F)o4)cc3)nn2)c1` [compound 180, 3-(1-(4-(5-(difluoromethyl)-1,3,4-oxadiazol-2-yl)benzyl)-1H-1,2,3-triazol-4-yl)-N-ethylaniline] are > 200000 nM and 92 nM.
As to `O=C(NCC1CC1)C1CCCN(C(=O)c2ccc(-c3cn(Cc4c(F)cc(-c5nnc(C(F)F)o5)cc4F)nn3)cc2)C1` (stereo not drawn) [compound 239, N-(cyclopropylmethyl)-1-(4-(1-(4-(5-(difluoromethyl)-1,3,4-oxadiazol-2-yl)-2,6-difluorobenzyl)-1H-1,2,3-triazol-4-yl)benzoyl)piperidine-3-carboxamide], the IC50 was > 200000 nM on recombinant human HDAC1 and 215 nM on recombinant human HDAC6.
Taken in the same sequence, the figures for `O=C1NCc2ccc(-c3cnn(Cc4ccc(-c5nnc(C(F)F)o5)cc4)c3)cc21` [compound 319, 6-[1-[[4-[5-(difluoromethyl)-1,3,4-oxadiazol-2-yl]phenyl]methyl]pyrazol-4-yl]-2,3-dihydroisoindol-1-one] were > 1e+06 nM and 87 nM.
On the same counts, the results for `Cn1c(N)nc2cc(-c3nnn(Cc4ccc(-c5nnc(C(F)F)o5)cc4Cl)n3)ccc21` [compound 374, 5-[2-[[2-chloro-4-[5-(difluoromethyl)-1,3,4-oxadiazol-2-yl]phenyl]methyl]tetrazol-5-yl]-1-methylbenzimidazol-2-amine] are > 1e+06 nM and 101 nM.
Regarding `CC(C)(C)OC(=O)N1CCC2(CC1)Nc1cc(-c3cn(Cc4ccc(-c5nnc(C(F)F)o5)cc4)nn3)ccc1NC2=O` [compound 268, tert-butyl 7′-(1-(4-(5-(difluoromethyl)-1,3,4-oxadiazol-2-yl)benzyl)-1H-1,2,3-triazol-4-yl)-3′-oxo-3′,4′-dihydro-1′H-spiro[piperidine-4,2′-quinoxaline]-1-carboxylate], the values for the IC50 at recombinant human HDAC1 and at recombinant human HDAC6 were > 200000 nM and 254 nM, respectively.
On the same counts, the results for `O=C(Nc1cc(-c2nnn(Cc3c(F)cc(-c4nnc(C(F)F)o4)cc3F)n2)ccc1OC(=O)N1CCOCC1)N1CCOCC1` [compound 196, 4-(2-(4-(5-(difluoromethyl)-1,3,4-oxadiazol-2-yl)-2,6-difluorobenzyl)-2H-tetrazol-5-yl)-2-(morpholine-4-carboxamido)phenyl morpholine-4-carboxylate] are > 200000 nM and 107 nM.
On the same counts, the results for `NC(=S)Nc1cccc(-c2cn(Cc3c(F)cc(-c4nnc(C(F)F)o4)cc3F)nn2)c1` [compound 175, 1-(3-(1-(4-(5-(difluoromethyl)-1,3,4-oxadiazol-2-yl)-2,6-difluorobenzyl)-1H-1,2,3-triazol-4-yl)phenyl)thiourea] are > 200000 nM and 88 nM.
Consider `FC(F)c1nnc(-c2ccc(Cn3nnc(Cc4ccccn4)n3)cc2)o1` [compound 251, 2-(difluoromethyl)-5-(4-((5-(pyridin-2-ylmethyl)-2H-tetrazol-2-yl)methyl)phenyl)-1,3,4-oxadiazole], for which the results for the IC50 at recombinant human HDAC1 and at recombinant human HDAC6 were > 200000 nM and 298 nM, respectively.
Taken in the same sequence, the figures for `CN1CCN(C(=O)Nc2cccc(-c3cn(Cc4ccc(-c5nnc(C(F)F)o5)cc4)nn3)c2)CC1` [compound 146, N-(3-(1-(4-(5-(difluoromethyl)-1,3,4-oxadiazol-2-yl)benzyl)-1H-1,2,3-triazol-4-yl)phenyl)-4-methylpiperazine-1-carboxamide] were > 200000 nM and 62 nM.
On the same counts, the results for `Nc1nc2ccc(-n3cc(Cc4ccc(-c5nnc(C(F)F)o5)cc4)nn3)cc2s1` [compd. 377, 6-[4-[[4-[5-(difluoromethyl)-1,3,4-oxadiazol-2-yl]phenyl]methyl]triazol-1-yl]-1,3-benzothiazol-2-amine] are > 1e+06 nM and 370 nM.
Taken in the same sequence, the figures for `Cn1c(Sc2c(F)cc(-c3nnc(C(F)F)o3)cc2F)nnc1-c1ccc(N)nc1` [compound 284, 5-(5-((4-(5-(difluoromethyl)-1,3,4-oxadiazol-2-yl)-2,6-difluorophenyl)thio)-4-methyl-4H-1,2,4-triazol-3-yl)pyridin-2-amine] were > 200000 nM and 323 nM.
`CN1CC(C(=O)Nc2cccc(-c3cn(Cc4c(F)cc(-c5nnc(C(F)F)o5)cc4F)nn3)c2)C1` [Compd. 86, N-(3-(1-(4-(5-(difluoromethyl)-1,3,4-oxadiazol-2-yl)-2,6-difluorobenzyl)-1H-1,2,3-triazol-4-yl)phenyl)-1-methylazetidine-3-carboxamide]: the IC50 was > 200000 nM at recombinant human HDAC1 and 34 nM at recombinant human HDAC6.
